# Results from US20120059032A1, “1,2,3,4-TETRAHYDROISOQUINOLINE DERIVATIVES EFFECTIVE AS ANTIGLIOMA AGENTS, METHODS OF MAKING, AND THEIR USE” (University of Tennessee Research Foundation, priority 2009, published 2012).
# pEC50: −log10 of the molar value. Where a name gives a salt, the structure may show the parent alone. Read-outs that look alike come from different tables or passages of the source.
# Experiments:
# [1] = test system: primary cultures of normal rat astrocytes; assay: Screening and dose response assay (percent survival, 4 days, cresyl violet) on astrocytes; type: cell-based; conditions: Table 1
# Text: (§1) Screening and Dose Response Assays. […]-1-(2′-methoxybiphenyl-4-ylmethyl)-3,4-dihydro-1H-isoquinoline-2-carboxylic acid tert-butyl ester (7a; EDL-355) was synthesized as described herein in the laboratory of Dr. Duane D. Miller at The University of Tennessee Health Science Center. Briefly, the primary cultures of astrocytes and cultures of C6 glioma cell lines were handled identically with respect to treatment concentrations and manipulations of cells for the screening assays. The cells were trypsinized and transferred to 96-well plates at a cell density of 10^3 cells/mm^2 in the wells. The cells were grown overnight in 100 μL of 10% FCS BME in a 37° C. incubator containing a humid, 5% CO2 atmosphere.
# (§2) EDL-355 was dissolved completely to make a 100 μM stock solution and diluted to produce a series of concentrations.
# (§3) A 20 μL aliquot of these initial solutions was added to 180 μl of 2% FCS BME to produce the test concentration. The vehicle solution was tested as a control. […] Immediately before treatment, the 10% FCS BME was removed from the cells and replaced with the […] of the treatment medium. The cultured cells (normal primary cultures of rat brain astrocytes or C6 glioma purchased from ATCC) were incubated with test compound for 4 days. The cells were fixed with 4% paraformaldehyde, stained with 0.1% Cresylecth violet stain, and quantitated. The screening data was collected as four wells for each dose per compound (screening) or concentration (dose response curve). Also, the average growth of 8 wells with no treatment was used as a negative control for each plate (100% growth). The cells for dose response curves were grown in the same media and were handled in a similar manner as in the screening assays.
# (§4) Data Analysis. The cytotoxic character of each compound was reported as the percent survival, calculated as the average A560 for treated cells divided by A560 of untreated (100% control) cells, and expressed as a percentage. Values less than 100% indicate a cytostatic or cytotoxic effect. Dose response curves and EC50 values were attained via plots of percent survival vs. concentration.
# C6 rat glioma cells = assay: Screening and dose response assay (percent survival, 4 days, cresyl violet) on C6 glioma; type: cell-based; conditions: for EC50: Table 1, read-out: EC50 μM C6; for pEC50: text b70, rat C6 glioma cell lines, read-out: antiglioma activity on rat C6 glioma cell lines
# Text: as §1, §2, §3, §4
compound,measurement,setting,value
"COc1cc2c(c(OC)c1)C(Cc1ccc(-c3ccccc3OC)cc1)NCC2 (single isomer, unassigned) [12a]",EC50,"[1]; listed as drawing 11, read-out: EC50 μM Astrocyte",15.4 µM
same,EC50,C6 rat glioma cells; listed as drawing 11,5.4 µM
same,pEC50,C6 rat glioma cells; listed as (−) 12a,5.27
"COc1cc2c(c(OC)c1)C(Cc1ccc(-c3ccccc3OC)cc1)NCC2 (single isomer, unassigned) [13a]",EC50,"[1]; Rattus norvegicus, Astrocyte",13.3 µM
same,EC50,C6 rat glioma cells; listed as drawing 12,0.3 µM
same,fold more potent than (−) 12a on rat C6 glioma cell lines,C6 rat glioma cells; ratio of the C6 values of (−) 12a and (+) 13a,~21 fold
same,pEC50,C6 rat glioma cells; listed as (+) 13a,6.59
"COc1cc2c(c(OC)c1)C(Cc1ccc(-c3ccccc3OC)cc1)NCC2.Cl (stereo not drawn) [9a, 6,8-Dimethoxy-1-(2′-methoxybiphenyl-4-ylmethyl)-1,2,3,4-tetrahydroisoquinoline hydrochloride]",EC50,"[1]; Rattus norvegicus, Astrocyte",10.2 µM
same,EC50,"[1]; hydrochloride, read-out: EC50 μM Astrocyte",8.52 µM
same,melting point,,140 to 142 °C
"COc1cc2c(c(OC)c1)C(Cc1ccc(-c3cnccc3OC)cc1)NCC2 (stereo not drawn) [9b, 6,8-Dimethoxy-1-[4-(4-methoxypyridin-3-yl)benzyl]-1,2,3,4-tetrahydroisoquinoline dihydrochloride]",EC50,"[1]; Rattus norvegicus, Astrocyte",13.7 µM
same,EC50,"C6 rat glioma cells; Rattus norvegicus, Glioma cell",0.08 µM
